Source: ChEMBL document CHEMBL1201862, “PubChem BioAssay data set” (2004)
Calls of active or inactive are those of the source.

Legend:
[1] = HPDE-C7 pancreatic duct cell viability loss – fluorescence, HTS (AID 430); type: functional, cell-based; settings: Homo sapiens
[2] = viability loss of HPDE-C7K cells – cell-based, fluorescence, HTS, primary screen (AID 431); type: functional; settings: Homo sapiens
[3] = target: Induced myeloid leukemia cell differentiation protein Mcl-1 (Homo sapiens, UniProt Q07820); type: functional
Ephrin type-A receptor 4 = Ephrin type-A receptor 4 (Mus musculus, UniProt Q03137); experiment: EphA4 ligand-binding antagonists – biochemical, colorimetric, mouse EphA4, primary screen (AID 689); type: functional
Estrogen receptor beta = Estrogen receptor beta (Homo sapiens, UniProt Q92731);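 note: recombinant ER-beta bound to coactivator SRC1 peptide in presence of estradiol agonist; inhibitors block coactivator peptide binding and lower the FRET signal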
[4] = viability of HCT116 lacking mutant beta-catenin – cell-based, human colon tumor, dose response (AID 1045); type: functional;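 note: HCT116 colon tumor cells with beta catenin knocked out; cells exposed to compound for 60 hours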
[5] = target: Heat shock protein HSP 90-alpha (Homo sapiens, UniProt P07900); type: functional, organism-based
[6] = system: Streptococcus sp. 'group A'; experiment: Streptococcus pyogenes SK(-)GAS viability under kanamycin – luminescence, BacTiterGlo, confirmation, counter-screen for streptokinase expression inhibitor project, dose response (AID 1900); type: functional, organism-based
Streptokinase A = target: T1, Streptokinase A (Streptococcus pyogenes serotype M1, UniProt P10520); experiment: viability-normalized secreted streptokinase activity reduction – plasminogen activation absorbance, OD405, dose response (AID 1914); type: functional, Streptococcus pyogenes M1 GAS;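 note: secreted streptokinase activity via plasminogen activation per viability signal from cell pellet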
T1 sequence (P10520 whole entry): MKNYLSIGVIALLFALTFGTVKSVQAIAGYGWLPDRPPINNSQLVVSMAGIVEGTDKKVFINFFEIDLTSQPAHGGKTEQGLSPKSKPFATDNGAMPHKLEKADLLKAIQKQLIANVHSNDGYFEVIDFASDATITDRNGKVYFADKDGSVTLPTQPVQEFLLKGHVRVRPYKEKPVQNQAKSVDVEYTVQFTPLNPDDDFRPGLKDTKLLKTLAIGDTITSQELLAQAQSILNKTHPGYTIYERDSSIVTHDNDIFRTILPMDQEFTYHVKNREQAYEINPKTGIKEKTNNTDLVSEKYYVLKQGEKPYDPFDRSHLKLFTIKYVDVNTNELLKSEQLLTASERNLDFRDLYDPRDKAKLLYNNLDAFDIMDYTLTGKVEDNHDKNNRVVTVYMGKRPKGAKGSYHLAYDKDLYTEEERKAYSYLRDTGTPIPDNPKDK

[7] = target: T2, Sentrin-specific protease 6 (Homo sapiens, UniProt Q9GZR1); type: functional;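 note: Luminescence-based dose-response confirmatory assay of SENP6 inhibition, following up an ultra-high-throughput screen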
T2 sequence (Q9GZR1 whole entry): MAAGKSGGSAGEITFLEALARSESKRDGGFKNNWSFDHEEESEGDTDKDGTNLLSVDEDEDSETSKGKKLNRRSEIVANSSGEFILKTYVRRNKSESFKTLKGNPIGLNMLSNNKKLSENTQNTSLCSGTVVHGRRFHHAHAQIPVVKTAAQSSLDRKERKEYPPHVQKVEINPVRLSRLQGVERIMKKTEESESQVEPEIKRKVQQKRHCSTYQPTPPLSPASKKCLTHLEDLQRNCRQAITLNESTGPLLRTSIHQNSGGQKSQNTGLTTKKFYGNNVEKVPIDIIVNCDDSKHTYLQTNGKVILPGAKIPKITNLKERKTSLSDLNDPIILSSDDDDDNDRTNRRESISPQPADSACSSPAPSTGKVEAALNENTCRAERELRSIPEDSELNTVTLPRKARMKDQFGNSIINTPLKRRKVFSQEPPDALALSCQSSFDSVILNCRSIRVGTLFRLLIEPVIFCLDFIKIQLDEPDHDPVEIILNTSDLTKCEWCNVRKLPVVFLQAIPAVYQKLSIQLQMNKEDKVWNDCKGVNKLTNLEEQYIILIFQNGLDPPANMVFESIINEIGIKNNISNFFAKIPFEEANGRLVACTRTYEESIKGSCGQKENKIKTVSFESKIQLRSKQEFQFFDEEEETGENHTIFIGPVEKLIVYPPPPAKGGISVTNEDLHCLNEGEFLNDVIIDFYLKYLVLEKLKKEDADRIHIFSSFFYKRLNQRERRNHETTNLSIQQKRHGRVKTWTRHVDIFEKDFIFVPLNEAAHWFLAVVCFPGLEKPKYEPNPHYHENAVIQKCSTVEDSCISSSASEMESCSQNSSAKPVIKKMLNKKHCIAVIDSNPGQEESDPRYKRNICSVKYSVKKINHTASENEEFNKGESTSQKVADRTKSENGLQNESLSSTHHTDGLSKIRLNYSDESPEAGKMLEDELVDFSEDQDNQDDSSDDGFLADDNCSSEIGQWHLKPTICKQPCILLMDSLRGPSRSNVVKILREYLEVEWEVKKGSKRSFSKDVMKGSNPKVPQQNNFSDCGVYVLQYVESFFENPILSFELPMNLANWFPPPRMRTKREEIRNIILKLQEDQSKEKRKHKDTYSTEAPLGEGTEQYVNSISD

[8] = target: T3, Sentrin-specific protease 8 (Homo sapiens, UniProt Q96LD8); type: functional;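 note: luminescence read-out of SENP8 inhibition, dose-response confirmation following an ultra-high-throughput screen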
T3 sequence (Q96LD8 whole entry): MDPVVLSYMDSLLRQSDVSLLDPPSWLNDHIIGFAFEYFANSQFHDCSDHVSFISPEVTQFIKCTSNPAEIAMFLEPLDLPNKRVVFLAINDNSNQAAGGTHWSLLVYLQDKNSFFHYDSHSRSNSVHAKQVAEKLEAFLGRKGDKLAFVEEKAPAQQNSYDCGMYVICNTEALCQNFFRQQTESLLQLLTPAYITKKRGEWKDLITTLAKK

[9] = viability of PTEN-deleted HCT116 cells – cell-based, HCT116 PTEN knockout, dose response (AID 1047); type: functional;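 note: HCT116 colon tumor cells with PTEN knocked out; cells exposed to compound for 60 hours before readout; potency for loss of cell viability measured by luminescence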
Caspase-3 = target: T4, Caspase-3 (Homo sapiens, UniProt P42574); type: functional;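 note: Dose-response selectivity test against caspase-3 for candidate inhibitors of sentrin-specific proteases (SENPs)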
T4 sequence (P42574 whole entry): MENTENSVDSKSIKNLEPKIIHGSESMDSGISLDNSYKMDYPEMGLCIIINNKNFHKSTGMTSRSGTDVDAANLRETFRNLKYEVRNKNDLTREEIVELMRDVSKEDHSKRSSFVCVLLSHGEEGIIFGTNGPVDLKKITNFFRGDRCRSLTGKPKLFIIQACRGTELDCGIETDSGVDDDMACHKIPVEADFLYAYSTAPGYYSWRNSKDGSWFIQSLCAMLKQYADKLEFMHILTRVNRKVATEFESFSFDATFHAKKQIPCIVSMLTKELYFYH

Streptococcus = experiment: GAS UMAA2166 growth inhibition – luminescence, BacTiterGlo, counter-screen for streptokinase expression inhibitor project, dose response (AID 1915); type: functional, organism-based;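 note: potency for reduction of bacterial viability or growth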
[10] = target: T5, Sentrin-specific protease 7 (Homo sapiens, UniProt Q9BQF6); type: functional;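 note: Luminescence-based dose-response confirmation of ultra-high-throughput screening hits, measuring inhibition of SENP7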
T5 sequence (Q9BQF6 whole entry): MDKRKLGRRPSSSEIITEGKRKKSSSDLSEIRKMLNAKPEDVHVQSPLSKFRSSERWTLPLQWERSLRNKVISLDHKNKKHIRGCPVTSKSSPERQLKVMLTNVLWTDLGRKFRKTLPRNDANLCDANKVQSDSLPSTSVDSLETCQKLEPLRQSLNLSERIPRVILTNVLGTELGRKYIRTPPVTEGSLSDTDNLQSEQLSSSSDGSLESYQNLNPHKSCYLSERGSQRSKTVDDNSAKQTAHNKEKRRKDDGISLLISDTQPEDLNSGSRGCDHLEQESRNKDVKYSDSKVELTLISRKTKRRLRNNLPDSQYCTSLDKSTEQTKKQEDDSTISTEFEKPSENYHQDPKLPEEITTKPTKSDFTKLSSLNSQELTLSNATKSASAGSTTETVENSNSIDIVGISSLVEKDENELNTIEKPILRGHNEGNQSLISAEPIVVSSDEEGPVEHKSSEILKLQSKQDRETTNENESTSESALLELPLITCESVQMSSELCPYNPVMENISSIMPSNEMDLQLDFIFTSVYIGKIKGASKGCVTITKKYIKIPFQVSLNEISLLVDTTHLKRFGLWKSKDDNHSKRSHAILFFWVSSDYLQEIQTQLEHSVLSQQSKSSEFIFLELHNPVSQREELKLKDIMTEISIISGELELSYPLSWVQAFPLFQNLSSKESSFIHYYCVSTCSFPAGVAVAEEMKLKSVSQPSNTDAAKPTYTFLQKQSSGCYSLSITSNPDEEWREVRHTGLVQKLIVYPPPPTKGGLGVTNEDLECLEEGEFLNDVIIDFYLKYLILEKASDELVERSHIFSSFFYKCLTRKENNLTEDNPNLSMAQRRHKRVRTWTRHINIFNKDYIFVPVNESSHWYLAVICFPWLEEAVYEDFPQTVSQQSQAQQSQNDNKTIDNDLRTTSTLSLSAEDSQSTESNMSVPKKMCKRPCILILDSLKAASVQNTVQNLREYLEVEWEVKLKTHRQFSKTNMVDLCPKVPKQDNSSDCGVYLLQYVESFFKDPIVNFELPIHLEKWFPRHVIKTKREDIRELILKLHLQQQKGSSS

Cytochrome P450 2C9 = Cytochrome P450 2C9 (Homo sapiens, UniProt P11712); settings: Potency
Mucolipin-3 = target: T6, Mucolipin-3 (Homo sapiens, UniProt Q8TDD5); experiment: Dose response cell-based high-throughput screening assay for agonists of the transient receptor potential channel ML3 (TRPML3). [Related pubchem assays: 1526, 1424, 1448 ]; type: functional
T6 sequence (Q8TDD5 whole entry): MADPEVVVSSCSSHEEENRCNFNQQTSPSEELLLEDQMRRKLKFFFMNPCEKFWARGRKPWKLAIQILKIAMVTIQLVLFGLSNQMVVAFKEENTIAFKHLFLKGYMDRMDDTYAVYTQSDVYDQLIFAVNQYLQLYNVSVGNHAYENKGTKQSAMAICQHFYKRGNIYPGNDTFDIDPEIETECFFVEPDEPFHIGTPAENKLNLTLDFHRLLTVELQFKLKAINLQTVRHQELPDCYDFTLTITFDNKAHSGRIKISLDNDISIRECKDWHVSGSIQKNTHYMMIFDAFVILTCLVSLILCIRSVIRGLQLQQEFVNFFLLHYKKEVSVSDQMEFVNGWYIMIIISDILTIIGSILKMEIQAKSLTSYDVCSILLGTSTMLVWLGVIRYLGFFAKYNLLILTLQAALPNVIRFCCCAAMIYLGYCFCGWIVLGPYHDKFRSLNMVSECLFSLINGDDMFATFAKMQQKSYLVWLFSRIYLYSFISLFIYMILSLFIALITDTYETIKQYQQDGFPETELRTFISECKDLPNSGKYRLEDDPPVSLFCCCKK

Ion channel NompC = Ion channel NompC (Danio rerio, UniProt Q7T1G6); experiment: Fluorescence counterscreen assay for TRPML3 agonists: dose response cell-based high-throughput screening assay to identify agonists of the transient receptor potential channel N1 (TRPN1). [Related pubchem assays: 1526, 1424, 1448 ]; type: functional
[11] = A cytotoxicity screen of small molecule inhibitors of the PhoP region in Salmonella typhi identified in the primary screen. [Related pubchem assays: 1850, 1864, 1985 ]; type: functional
[12] = target: Luciferin 4-monooxygenase (Photinus pyralis, UniProt P08659); experiment: inhibition of purified Photinus pyralis luciferase – biochemical, luminescence, dose response (AID 1891)
[13] = Luminescence Cell-Based Dose Confirmation HTS to Identify Inhibitors of Platelet Dense Granule Release. [Related pubchem assays: 1663 (Primary HTS), 1678 (Summary of Project)]; type: functional
cells = type: functional

Chain of Ion channel NompC (Q7T1G6 whole entry): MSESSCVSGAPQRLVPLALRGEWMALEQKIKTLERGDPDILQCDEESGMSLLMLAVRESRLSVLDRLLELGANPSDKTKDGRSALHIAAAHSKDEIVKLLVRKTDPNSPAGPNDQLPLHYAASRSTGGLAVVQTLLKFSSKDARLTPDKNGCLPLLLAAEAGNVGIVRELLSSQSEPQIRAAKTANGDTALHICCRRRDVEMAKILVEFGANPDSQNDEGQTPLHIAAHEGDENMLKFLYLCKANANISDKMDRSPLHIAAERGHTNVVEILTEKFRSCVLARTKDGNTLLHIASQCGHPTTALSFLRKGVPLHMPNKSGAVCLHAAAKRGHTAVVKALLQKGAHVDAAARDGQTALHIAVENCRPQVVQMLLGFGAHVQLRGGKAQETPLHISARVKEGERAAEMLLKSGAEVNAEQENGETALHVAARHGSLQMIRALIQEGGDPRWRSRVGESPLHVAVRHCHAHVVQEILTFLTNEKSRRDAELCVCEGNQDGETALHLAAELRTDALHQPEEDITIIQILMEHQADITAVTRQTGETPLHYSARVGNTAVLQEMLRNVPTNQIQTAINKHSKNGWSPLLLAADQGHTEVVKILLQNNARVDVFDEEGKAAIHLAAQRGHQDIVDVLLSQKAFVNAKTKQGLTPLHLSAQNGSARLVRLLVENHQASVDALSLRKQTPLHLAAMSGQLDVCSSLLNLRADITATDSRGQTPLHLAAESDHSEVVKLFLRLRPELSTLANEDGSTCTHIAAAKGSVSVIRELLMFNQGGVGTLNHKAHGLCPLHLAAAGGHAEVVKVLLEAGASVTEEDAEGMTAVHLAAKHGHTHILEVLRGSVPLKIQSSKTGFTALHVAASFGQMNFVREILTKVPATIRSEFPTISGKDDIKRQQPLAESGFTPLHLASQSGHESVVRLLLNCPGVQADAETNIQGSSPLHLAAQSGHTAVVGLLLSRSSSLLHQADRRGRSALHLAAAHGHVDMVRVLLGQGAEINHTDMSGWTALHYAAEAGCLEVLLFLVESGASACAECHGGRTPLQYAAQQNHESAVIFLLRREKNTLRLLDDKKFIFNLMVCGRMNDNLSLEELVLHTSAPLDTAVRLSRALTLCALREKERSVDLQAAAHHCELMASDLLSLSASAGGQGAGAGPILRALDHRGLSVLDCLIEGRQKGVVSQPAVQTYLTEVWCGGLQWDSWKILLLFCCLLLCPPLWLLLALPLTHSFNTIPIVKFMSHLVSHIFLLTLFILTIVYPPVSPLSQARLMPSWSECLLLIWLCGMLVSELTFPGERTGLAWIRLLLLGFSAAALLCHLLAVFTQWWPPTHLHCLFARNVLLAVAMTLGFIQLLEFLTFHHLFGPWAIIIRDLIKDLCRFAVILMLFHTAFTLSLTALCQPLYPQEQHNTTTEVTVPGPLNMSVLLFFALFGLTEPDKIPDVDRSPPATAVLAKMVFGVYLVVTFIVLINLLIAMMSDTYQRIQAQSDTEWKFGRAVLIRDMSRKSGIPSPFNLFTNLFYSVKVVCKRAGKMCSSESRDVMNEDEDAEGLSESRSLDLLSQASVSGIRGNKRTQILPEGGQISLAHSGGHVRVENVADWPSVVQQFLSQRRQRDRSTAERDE
Chain of Estrogen receptor beta (Q92731 whole entry): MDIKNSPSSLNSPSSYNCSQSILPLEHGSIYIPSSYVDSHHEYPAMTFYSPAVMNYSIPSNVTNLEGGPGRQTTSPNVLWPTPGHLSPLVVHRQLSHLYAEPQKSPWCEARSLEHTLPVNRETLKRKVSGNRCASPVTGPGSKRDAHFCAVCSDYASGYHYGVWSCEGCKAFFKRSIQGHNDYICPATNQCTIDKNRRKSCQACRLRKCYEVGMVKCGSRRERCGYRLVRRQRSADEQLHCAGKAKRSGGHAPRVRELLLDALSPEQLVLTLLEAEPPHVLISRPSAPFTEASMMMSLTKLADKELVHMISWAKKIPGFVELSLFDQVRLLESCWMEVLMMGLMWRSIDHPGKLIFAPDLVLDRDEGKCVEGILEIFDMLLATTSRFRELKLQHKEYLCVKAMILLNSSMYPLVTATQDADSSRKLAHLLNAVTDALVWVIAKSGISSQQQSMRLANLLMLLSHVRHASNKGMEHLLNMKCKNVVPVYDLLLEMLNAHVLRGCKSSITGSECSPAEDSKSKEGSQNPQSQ
Chain of Induced myeloid leukemia cell differentiation protein Mcl-1 (Q07820 whole entry): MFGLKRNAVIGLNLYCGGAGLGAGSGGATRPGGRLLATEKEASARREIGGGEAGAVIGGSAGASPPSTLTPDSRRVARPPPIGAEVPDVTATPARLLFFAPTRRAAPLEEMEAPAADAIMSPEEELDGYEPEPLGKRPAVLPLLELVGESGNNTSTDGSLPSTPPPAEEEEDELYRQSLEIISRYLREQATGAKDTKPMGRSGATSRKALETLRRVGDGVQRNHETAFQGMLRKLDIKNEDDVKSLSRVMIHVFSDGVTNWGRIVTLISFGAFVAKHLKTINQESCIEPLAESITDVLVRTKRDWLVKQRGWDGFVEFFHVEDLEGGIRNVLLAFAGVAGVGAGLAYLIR
Chain of Ephrin type-A receptor 4 (Q03137 whole entry): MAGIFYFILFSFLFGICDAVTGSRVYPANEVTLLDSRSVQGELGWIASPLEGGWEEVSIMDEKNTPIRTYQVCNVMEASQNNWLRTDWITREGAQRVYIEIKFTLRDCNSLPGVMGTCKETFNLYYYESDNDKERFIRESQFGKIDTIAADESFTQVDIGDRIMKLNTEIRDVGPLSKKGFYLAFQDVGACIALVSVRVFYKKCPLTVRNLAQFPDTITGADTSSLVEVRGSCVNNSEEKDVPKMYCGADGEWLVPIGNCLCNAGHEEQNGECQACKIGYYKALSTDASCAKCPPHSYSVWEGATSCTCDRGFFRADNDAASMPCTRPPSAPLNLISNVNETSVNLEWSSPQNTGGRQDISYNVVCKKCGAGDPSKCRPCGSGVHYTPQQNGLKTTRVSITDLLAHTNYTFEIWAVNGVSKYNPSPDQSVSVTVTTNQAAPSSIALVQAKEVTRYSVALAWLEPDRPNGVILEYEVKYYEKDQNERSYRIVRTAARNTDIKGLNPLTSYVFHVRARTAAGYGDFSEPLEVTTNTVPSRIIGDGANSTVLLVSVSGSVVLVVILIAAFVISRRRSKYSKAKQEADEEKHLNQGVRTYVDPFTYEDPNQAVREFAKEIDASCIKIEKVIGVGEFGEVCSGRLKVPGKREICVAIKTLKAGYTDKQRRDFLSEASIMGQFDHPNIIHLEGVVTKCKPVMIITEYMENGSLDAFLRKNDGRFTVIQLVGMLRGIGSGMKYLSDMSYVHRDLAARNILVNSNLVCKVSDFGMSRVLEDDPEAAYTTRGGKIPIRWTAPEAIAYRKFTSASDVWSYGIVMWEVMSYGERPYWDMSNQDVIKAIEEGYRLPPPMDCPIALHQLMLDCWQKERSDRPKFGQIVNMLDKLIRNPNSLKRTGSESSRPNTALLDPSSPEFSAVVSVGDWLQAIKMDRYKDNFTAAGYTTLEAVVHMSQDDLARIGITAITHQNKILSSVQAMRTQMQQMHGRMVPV
Chain of Cytochrome P450 2C9 (P11712 whole entry): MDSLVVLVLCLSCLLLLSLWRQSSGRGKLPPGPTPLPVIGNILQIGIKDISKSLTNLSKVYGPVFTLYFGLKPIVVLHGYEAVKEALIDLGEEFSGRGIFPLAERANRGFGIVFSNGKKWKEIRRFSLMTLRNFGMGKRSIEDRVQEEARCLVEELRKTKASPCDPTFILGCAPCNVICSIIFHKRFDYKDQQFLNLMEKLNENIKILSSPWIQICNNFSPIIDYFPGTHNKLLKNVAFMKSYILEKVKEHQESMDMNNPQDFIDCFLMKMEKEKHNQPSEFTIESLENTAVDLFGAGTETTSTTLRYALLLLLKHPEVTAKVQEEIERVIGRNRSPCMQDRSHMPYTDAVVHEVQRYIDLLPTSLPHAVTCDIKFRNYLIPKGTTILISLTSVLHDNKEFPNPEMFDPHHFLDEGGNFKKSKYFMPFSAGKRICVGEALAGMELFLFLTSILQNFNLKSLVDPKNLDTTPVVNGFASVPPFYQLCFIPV
Chain of Luciferin 4-monooxygenase (P08659 whole entry): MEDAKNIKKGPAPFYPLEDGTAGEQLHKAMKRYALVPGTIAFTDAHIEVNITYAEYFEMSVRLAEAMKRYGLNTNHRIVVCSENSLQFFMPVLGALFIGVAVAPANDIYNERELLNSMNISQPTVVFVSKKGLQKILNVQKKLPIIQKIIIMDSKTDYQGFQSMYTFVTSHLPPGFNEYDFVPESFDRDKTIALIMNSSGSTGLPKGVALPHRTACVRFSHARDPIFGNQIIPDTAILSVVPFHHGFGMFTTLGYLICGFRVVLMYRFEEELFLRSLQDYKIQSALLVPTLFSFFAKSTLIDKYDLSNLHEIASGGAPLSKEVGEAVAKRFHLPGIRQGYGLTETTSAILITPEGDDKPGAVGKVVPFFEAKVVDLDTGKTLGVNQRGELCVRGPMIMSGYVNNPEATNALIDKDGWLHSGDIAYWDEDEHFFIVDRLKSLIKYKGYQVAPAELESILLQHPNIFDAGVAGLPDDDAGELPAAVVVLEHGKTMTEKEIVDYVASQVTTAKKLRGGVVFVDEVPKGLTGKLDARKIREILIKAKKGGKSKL

## N#Cc1nc(-c2ccc(OCc3ccccc3)cc2)oc1NCCCN1CCOCC1
[1]
  EC50: 13 µM (active)
[2]
  EC50: 13.6 µM (active)

## [O-][n+]1onc2c1CCC(=N/O)/C2=N\Nc1ccccc1
[3]
  IC50: 4.87 µM (active)

## CC(=O)OC1(c2ccc(C)cc2)CN2CCC1c1ccccc12 (configuration not stated)
Ephrin type-A receptor 4
  IC50: > 100 µM (not active)

## COc1ccc(N2CCN(C(=O)CCCn3c(=O)[nH]c4ccsc4c3=O)CC2)cc1
Estrogen receptor beta
  IC50: > 50 µM (not active)

## COc1ccc(O)c(-c2cc(-c3cccc(Br)c3)[nH]n2)c1
[4]
  EC50: 16.6 µM (active)
[5]
  AC50: 8.06 µM (active)
[6]
  EC50: 6.53 µM (active)
Streptokinase A
  EC50: > 150 µM (inconclusive)
[7]
  IC50: 26.5 µM (active)
[8]
  IC50: 29.1 µM (active)
[9]
  EC50: 25.4 µM (active)
Caspase-3
  IC50: 97.7 µM (active)
Streptococcus
  EC50: 12.4 µM (active)
[1]
  EC50: 8.85 µM (active)
[2]
  EC50: 4.73 µM (active)
[10]
  IC50: 11.3 µM (active)

## CC(C)C[C@@H](CC(=O)N[C@H](CC(=O)N[C@@H]1CCCC[C@H]1C(=O)N[C@H](CC(=O)N[C@@H](CCC(=O)O)CC(=O)O)Cc1ccccc1)C(C)C)NC(=O)[C@@H]1CCCC[C@H]1N
Cytochrome P450 2C9
  AC50: 39.8 µM (inconclusive)

## COC(=O)c1ccc(Cl)cc1N(Cc1c(F)cccc1Cl)S(C)(=O)=O
Mucolipin-3
  EC50: 2.49 µM (active)
Ion channel NompC
  EC50: 6.15 µM (active)

## COc1cc(NC(=O)c2cccs2)c(C(=O)OCC(=O)NC(=O)NC(C)(C)C)cc1OC
Estrogen receptor beta
  IC50: > 50 µM (not active)

## O=C(C1Cc2ccccc2CN1S(=O)(=O)c1ccc(F)cc1)N1CCCCCC1 (configuration not stated)
Mucolipin-3
  EC50: 3.72 µM (active)
Ion channel NompC
  EC50: > 29.9 µM (not active)

## CCOC(=O)c1cc(-c2ccco2)nc2c1c(C)nn2-c1cccc(Cl)c1
[3]
  IC50: 2.51 µM (active)

## CCN(CC)S(=O)(=O)c1cc(NC(=O)C2Cc3ccccc3C(=O)O2)ccc1C (configuration not stated)
[11]
  EC50: > 50 µM (active)
[12]
  EC50: > 112 µM (not active)
[13]
  EC50: > 112 µM (not active)

## COc1ccc(-c2noc(CCC(=O)Nc3cccc(C)c3)n2)cc1
[11]
  EC50: > 50 µM (active)
cells
  IC50: 15.9 µM (active)

## Cc1nn(C(C)(C)C)c(OC(=O)C2CCCC2)c1S(=O)(=O)c1ccccc1
Mucolipin-3
  EC50: > 9.99 µM (not active)
Ion channel NompC
  EC50: > 29.9 µM (not active)

## C=CCOc1ccc(Cl)cc1CNC1CCCC1
[11]
  EC50: > 50 µM (active)
